Experimental data taken from US8779154B2, “Fused ring compounds for inflammation and immune-related uses” (priority 2006, dated 2014).

The molecules below were run on IL-2 production (assay: Inhibition of IL-2 production in PHA-activated Jurkat cells (ELISA)). Details: Homo sapiens, Jurkat, 20 h, PHA 2.5 μg/mL, IL-2 ELISA.
Assay type: cell-based
Procedure: Jurkat cells were placed in a 96 well plate (0.5 million cells per well in 1% FBS medium) then a test compound of this invention was added at different concentrations. After 10 minutes, the cells were activated with PHA (final concentration 2.5 μg/mL) and incubated for 20 hours at 37° C. under CO2. The final volume was 200 μL. Following incubation, the cells were centrifuged and the supernatants collected and stored at −70° C. prior to assaying for IL-2 production. A commercial ELISA kit (IL-2 Eli-pair, Diaclone Research, Besancon, France) was used to detect production of IL-2, from which dose response curves were obtained. The IC50 value was calculated as the concentration at which 50% of maximum IL-2 production after stimulation was inhibited versus a non-stimulation control.

O=C(Nc1nc2c(=O)oc3ccc(C(F)(F)F)cc3c2s1)c1c(F)cccc1F [Compound 1] and O=C(Nc1nc2c(=O)oc3ccc(O)cc3c2s1)c1c(F)cccc1F [Compound 15] cannot be ordered by IC50: > 1000 nM for the first, > 1000 nM for the second.

Going from COc1cccc2c1oc(=O)c1nc(NC(=O)c3c(F)cccc3F)sc12 [Compound 2] to COc1cccc2c1CCCc1nc(NC(=O)c3c(F)cccc3F)sc1-2 [Compound 12], the IC50 falls from > 1000 nM to ≤ 30 nM. The second is the more potent here.

COc1ccc2c(c1)-c1sc(NC(=O)c3ccncc3F)nc1CCC2 [Compound 3] and COc1ccc2c(c1)-c1sc(NC(=O)c3ccncc3F)nc1CCO2 [Compound 9] cannot be ordered by IC50: > 1000 nM for the first, > 1000 nM for the second.

Compared with COc1ccc2c(c1)-c1sc(NC(=O)c3c(F)cccc3F)nc1CCO2 [Compound 4], COc1ccc2c(c1)-c1sc(NC(=O)c3c(F)cccc3F)nc1CCC2 [Compound 8] is lower in IC50: > 1000 nM for the first, 30 to 100 nM for the second. The second is the more potent here.

COc1ccc2c(c1)-c1sc(C(=O)Nc3c(F)cccc3F)nc1CCC2 [Compound 5] and O=C(Nc1c(F)cccc1F)c1nc2c(s1)-c1cc(Br)ccc1CCC2 [Compound 18] cannot be ordered by IC50: ≤ 30 nM for the first, 30 to 100 nM for the second.

First: COc1cccc2c1CCCc1nc(C(=O)Nc3c(F)cccc3F)sc1-2 [Compound 6]
Second: O=C(Nc1c(F)cccc1F)c1nc2c(s1)-c1ccccc1CCC2 [Compound 31]
The IC50 of the first is lower: 250 to 500 nM for the first, > 1000 nM for the second.

First: O=c1oc2ccc(C(F)(F)F)cc2c2sc(NCc3c(F)cccc3F)nc12 [Compound 7]
Second: Fc1cccc(F)c1CNc1nc2c(s1)-c1cccc(-c3cnco3)c1CCC2 [Compound 69]
The IC50 of the first is higher: > 1000 nM for the first, 250 to 500 nM for the second.

First: COc1ccc2c(c1)-c1sc(C(=O)Nc3ccncc3C)nc1CCC2 [Compound 10]
Second: COc1cccc2c1CCCc1nc(C(=O)Nc3ccncc3C)sc1-2 [Compound 11]
The IC50 of the first is lower: 250 to 500 nM for the first, > 1000 nM for the second. The first is the more potent here.

First: COc1cccc2c1CCCc1nc(NC(=O)c3ccncc3F)sc1-2 [Compound 14]
Second: COc1cccc2c1CCCc1nc(NC(=O)c3ccncc3C)ncc1-2 [Compound 92]
The IC50 of the first is lower: 100 to 250 nM for the first, > 1000 nM for the second.

First: O=C(Nc1nc2c(s1)-c1ccccc1CCC2)c1c(F)cccc1F [Compound 16]
Second: O=C(Nc1nc2c(s1)-c1cc(Br)ccc1CCC2)c1c(F)cccc1F [Compound 17]
The IC50 of the first is lower: 250 to 500 nM for the first, > 1000 nM for the second.

O=C(Nc1c(F)cccc1F)c1nc2c(s1)-c1cc(-c3cnco3)ccc1CCC2 [Compound 19] and Cn1cc(-c2ccc3c(c2)-c2sc(C(=O)Nc4c(F)cccc4F)nc2CCC3)cn1 [Compound 127] cannot be ordered by IC50: ≤ 30 nM for the first, ≤ 30 nM for the second.

O=C(Nc1c(F)cccc1F)c1nc2c(s1)-c1cc(O)ccc1CCC2 [Compound 32] and COC(=O)c1ccc2c(c1)-c1sc(C(=O)Nc3c(F)cccc3F)nc1CCC2 [Compound 38] cannot be ordered by IC50: 30 to 100 nM for the first, ≤ 30 nM for the second.

First: COc1ccc2c(c1)-c1sc(C(=O)Nc3c(F)cccc3F)nc1CCO2 [Compound 33]
Second: COc1ccc2c(c1)-c1cnc(NC(=O)c3c(F)cccc3F)nc1CCO2 [Compound 94]
The IC50 of the first is lower: 100 to 250 nM for the first, > 1000 nM for the second. The first is the more potent here.

First: O=C(Nc1c(F)cccc1F)c1nc2c(s1)-c1cc(-c3nccs3)ccc1CCC2 [Compound 34]
Second: O=C(Nc1nc2c(s1)-c1cc(-c3nccs3)ccc1CCC2)c1c(F)cccc1F [Compound 83]
The IC50 of the first is lower: ≤ 30 nM for the first, 100 to 250 nM for the second.

O=C(Nc1c(F)cccc1F)c1nc2c(s1)-c1cc(-c3ccccn3)ccc1CCC2 [Compound 37] and O=C(Nc1c(F)cccc1F)c1nc2c(s1)-c1cc(-c3cccnc3F)ccc1CCC2 [Compound 122] cannot be ordered by IC50: ≤ 30 nM for the first, ≤ 30 nM for the second.

Compared with Cn1nnnc1-c1ccc2c(c1)-c1sc(C(=O)Nc3c(F)cccc3F)nc1CCC2 [Compound 39], Cn1nnc(-c2ccc3c(c2)-c2sc(C(=O)Nc4c(F)cccc4F)nc2CCC3)n1 [Compound 41] is higher in IC50: ≤ 30 nM for the first, 250 to 500 nM for the second.

O=C(Nc1c(F)cccc1F)c1nc2c(s1)-c1cc(-c3nnn[nH]3)ccc1CCC2 [Compound 40] and O=C(Nc1nc2c(s1)-c1ccc(-c3nnn[nH]3)cc1CCC2)c1c(F)cccc1F [Compound 77] cannot be ordered by IC50: > 1000 nM for the first, > 1000 nM for the second.

First: O=C(Nc1c(F)cccc1F)c1nc2c(s1)-c1cc(CN3CCOCC3)ccc1CCC2 [Compound 42]
Second: O=C(Nc1c(F)cccc1F)c1nc2c(s1)-c1cc(OC(=O)n3ccnc3)ccc1CCC2 [Compound 111]
The IC50 of the first is higher: > 1000 nM for the first, 250 to 500 nM for the second. The second is the more potent here.

First: O=C(Nc1nc2c(s1)-c1cccc(O)c1CCC2)c1c(F)cccc1F [Compound 51]
Second: O=Cc1cccc2c1CCCc1nc(NC(=O)c3c(F)cccc3F)sc1-2 [Compound 67]
The IC50 of the first is lower: 30 to 100 nM for the first, 500 to 1000 nM for the second. The first is the more potent here.

First: N#Cc1ccc2c(c1)CCCc1nc(NC(=O)c3c(F)cccc3F)sc1-2 [Compound 59]
Second: N#Cc1ccc2c(c1)-c1sc(NC(=O)c3c(F)cccc3F)nc1CCC2 [Compound 80]
The IC50 of the first is lower: 30 to 100 nM for the first, > 1000 nM for the second.

Cc1nc(-c2ccc3c(c2)CCCc2nc(NC(=O)c4c(F)cccc4F)sc2-3)no1 [Compound 60] and Cn1nnnc1-c1ccc2c(c1)CCCc1nc(NC(=O)c3c(F)cccc3F)sc1-2 [Compound 78] cannot be ordered by IC50: 30 to 100 nM for the first, ≤ 30 nM for the second.

First: O=C(Nc1nc2c(s1)-c1cccc(-c3nccs3)c1CCC2)c1c(F)cccc1F [Compound 70]
Second: Cc1csc(-c2cccc3c2CCCc2nc(NC(=O)c4c(F)cccc4F)sc2-3)n1 [Compound 71]
The IC50 of the first is lower: 100 to 250 nM for the first, 250 to 500 nM for the second. The first is the more potent here.

Compared with O=C(Nc1nc2c(s1)-c1ccc(I)cc1CCC2)c1c(F)cccc1F [Compound 72], O=C(Nc1nc2c(s1)-c1cc(O)ccc1CCC2)c1c(F)cccc1F [Compound 79] is higher in IC50: 30 to 100 nM for the first, 250 to 500 nM for the second. The first is the more potent here.

COC(=O)c1ccc2c(c1)CCCc1nc(NC(=O)c3c(F)cccc3F)sc1-2 [Compound 73] and O=C(Nc1nc2c(s1)-c1ccncc1CCC2)c1c(F)cccc1F [Compound 87] fall in the same range of IC50: 30 to 100 nM for the first, 30 to 100 nM for the second.

O=C(Nc1nc2c(s1)-c1ccc(-n3ccnc3)cc1CCC2)c1c(F)cccc1F [Compound 74] and O=C(Nc1nc2c(s1)-c1ccc(-c3nccs3)cc1CCC2)c1c(F)cccc1F [Compound 75] fall in the same range of IC50: 100 to 250 nM for the first, 100 to 250 nM for the second.

Compared with O=C(Nc1nc2c(s1)-c1ccc(-c3ncco3)cc1CCC2)c1c(F)cccc1F [Compound 76], O=C(Nc1nc2c(s1)-c1cc(-c3ccccn3)ccc1CCC2)c1c(F)cccc1F [Compound 82] is higher in IC50: 30 to 100 nM for the first, > 1000 nM for the second.

First: CN(C)c1cccc(F)c1C(=O)Nc1nc2c(s1)-c1cc(C#N)ccc1CCC2 [Compound 81]
Second: O=C(Nc1nc2c(s1)-c1ccsc1CCC2)c1c(F)cccc1F [Compound 85]
The IC50 of the first is lower: 500 to 1000 nM for the first, > 1000 nM for the second.

O=C(Nc1nc2c(s1)-c1cc(Br)sc1CCC2)c1c(F)cccc1F [Compound 84] and N#Cc1cc2c(s1)CCCc1nc(NC(=O)c3c(F)cccc3F)sc1-2 [Compound 86] cannot be ordered by IC50: > 1000 nM for the first, > 1000 nM for the second.

O=C(Nc1nc2c(s1)-c1nc(-c3cccnc3)sc1CCC2)c1c(F)cccc1F [Compound 88] and O=C(Nc1ncc2c(n1)CCCc1cnc(-c3cccnc3)nc1-2)c1c(F)cccc1F [Compound 89] fall in the same range of IC50: 500 to 1000 nM for the first, 500 to 1000 nM for the second.

First: COc1cccc2c1CCCc1nc(NC(=O)c3c(F)cccc3F)ncc1-2 [Compound 91]
Second: COc1ccc2c(c1)-c1cnc(NC(=O)c3c(F)cccc3F)nc1CCC2 [Compound 93]
The IC50 of the first is lower: 100 to 250 nM for the first, 500 to 1000 nM for the second.

COc1ccc2c(c1)-c1cnc(NC(=O)c3ccncc3C)nc1CCO2 [Compound 95] and COc1ccc2c(c1)CCCCc1nc(NC(=O)c3c(F)cccc3F)ncc1-2 [Compound 98] cannot be ordered by IC50: > 1000 nM for the first, > 1000 nM for the second.

First: COc1ccc2c(c1)CCCc1nc(NC(=O)c3c(F)cccc3F)cnc1-2 [Compound 96]
Second: COc1ccc2c(c1)CCCc1c-2ncc(NC(=O)c2c(F)cccc2F)[n+]1[O-] [Compound 97]
The IC50 of the first is lower: 250 to 500 nM for the first, 500 to 1000 nM for the second.

O=C(Nc1ccc2c(c1)CCCc1cnc(-c3cccnc3)nc1-2)c1c(F)cccc1F [Compound 99] and O=C(Nc1ccc2c(c1)CCCc1cnc(-c3ccncc3)nc1-2)c1c(F)cccc1F [Compound 108] fall in the same range of IC50: 30 to 100 nM for the first, 30 to 100 nM for the second.

Fc1cccc(F)c1CN(Cc1c(F)cccc1F)c1ccc2c(c1)CCCc1cnc(-c3cccnc3)nc1-2 [Compound 103] and Fc1cccc(F)c1CNc1ccc2c(c1)CCCc1cnc(-c3cccnc3)nc1-2 [Compound 104] cannot be ordered by IC50: > 1000 nM for the first, > 1000 nM for the second.

First: O=C(Nc1ccc2c(c1)CCCc1cnc(-c3ccccn3)nc1-2)c1c(F)cccc1F [Compound 106]
Second: O=C(Nc1ccc2c(c1)CCCc1cnc(C3CC3)nc1-2)c1c(F)cccc1F [Compound 110]
The IC50 of the first is higher: 500 to 1000 nM for the first, 250 to 500 nM for the second.

Compared with Nc1ccc(-c2ccc3c(c2)-c2sc(C(=O)Nc4c(F)cccc4F)nc2CCC3)cn1 [Compound 115], O=C(Nc1c(F)cccc1F)c1nc2c(s1)-c1cc(-c3ccc(O)nc3)ccc1CCC2 [Compound 117] is higher in IC50: 30 to 100 nM for the first, 100 to 250 nM for the second.

O=C(Nc1c(F)cccc1F)c1nc2c(s1)-c1cc(-c3ccnc(F)c3)ccc1CCC2 [Compound 118] and COc1cc(-c2ccc3c(c2)-c2sc(C(=O)Nc4c(F)cccc4F)nc2CCC3)ccn1 [Compound 119] fall in the same range of IC50: 100 to 250 nM for the first, 100 to 250 nM for the second.

O=C(Nc1c(F)cccc1F)c1nc2c(s1)-c1cc(-c3ccc(F)nc3)ccc1CCC2 [Compound 120] and COc1ccc(-c2ccc3c(c2)-c2sc(C(=O)Nc4c(F)cccc4F)nc2CCC3)cn1 [Compound 121] fall in the same range of IC50: 250 to 500 nM for the first, 250 to 500 nM for the second.

COc1ncccc1-c1ccc2c(c1)-c1sc(C(=O)Nc3c(F)cccc3F)nc1CCC2 [Compound 123] and O=C(Nc1c(F)cccc1F)c1nc2c(s1)-c1cc(-c3ccncc3)ccc1CCC2 [Compound 125] cannot be ordered by IC50: ≤ 30 nM for the first, 30 to 100 nM for the second.

O=C(Nc1c(F)cccc1F)c1nc2c(s1)-c1cc(-c3cncnc3)ccc1CCC2 [Compound 124] showed an IC50 of 30 to 100 nM.

Same assay, conditions: Homo sapiens, PHA 2.5 μg/mL, 20 hours, IL-2 ELISA

First: O=C(Nc1c(F)ccc([N+](=O)[O-])c1F)c1nc2c(s1)-c1ccc([N+](=O)[O-])cc1CCC2 [Compound 35]
Second: O=C(Nc1c(F)ccc([N+](=O)[O-])c1F)c1nc2c(s1)-c1cc([N+](=O)[O-])ccc1CCC2 [Compound 36]
The IC50 of the first is lower: 100 to 250 nM for the first, 500 to 1000 nM for the second. The first is the more potent here.
